# pIC50: −log10 of the molar value.
# Target: T1, Cytochrome P450 26A1 (Homo sapiens, UniProt O43174)
# T1 sequence (O43174 whole entry): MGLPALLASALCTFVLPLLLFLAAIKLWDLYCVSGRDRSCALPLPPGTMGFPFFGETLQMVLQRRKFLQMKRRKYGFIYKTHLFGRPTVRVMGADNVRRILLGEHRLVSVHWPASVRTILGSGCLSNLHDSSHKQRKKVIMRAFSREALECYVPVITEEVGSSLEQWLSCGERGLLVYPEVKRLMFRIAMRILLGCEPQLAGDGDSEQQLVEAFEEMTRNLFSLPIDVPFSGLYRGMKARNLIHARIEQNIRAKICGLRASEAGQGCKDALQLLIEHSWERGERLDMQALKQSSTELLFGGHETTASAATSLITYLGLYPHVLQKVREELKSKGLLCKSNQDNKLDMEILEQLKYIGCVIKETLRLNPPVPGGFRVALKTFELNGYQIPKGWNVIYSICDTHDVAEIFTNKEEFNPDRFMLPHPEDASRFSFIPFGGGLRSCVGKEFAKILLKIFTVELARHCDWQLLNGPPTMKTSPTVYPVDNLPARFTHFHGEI
# Experiment: Cell Assay
row,SMILES,pIC50
1,"COC(=O)c1ccc(C(c2ccc(Nc3nc4ccccc4o3)cc2)n2ccnc2)cc1 (centres undefined) [Oxazolamine derivative, 5c]",4.70
2,"COc1ccc(C(c2ccc(Nc3nc4ccccc4o3)cc2)n2ccnc2)cc1 (centres undefined) [Oxazolamine derivative, 5e]",< 4.70
3,CCC(CC)C(c1ccc(Nc2nc3ccccc3s2)cc1)n1cncn1 (centres undefined) [R115866],8.30
4,"O=C(O)c1ccc(C(c2ccc(Nc3nc4ccccc4o3)cc2)n2ccnc2)cc1 (centres undefined) [Oxazolamine derivative, 5d]",4.30

# Second part, the compound after the results:
row,pIC50,SMILES
1,< 4.70,"c1ccc(C(c2ccc(Nc3nc4ccccc4o3)cc2)n2cnnc2)cc1 (centres undefined) [1H-1,2,4-triazole, 12]"
2,4.74,"c1ccc(C(c2ccc(Nc3nc4ccccc4o3)cc2)n2cncn2)cc1 (centres undefined) [1H-1,2,4-triazole, 11]"
3,4.92,"Oc1ccc(C(c2ccc(Nc3nc4ccccc4o3)cc2)n2ccnc2)cc1 (centres undefined) [Oxazolamine derivative, 5f]"
4,< 4.70,"c1ccc(C(c2ccc(Nc3nc4ccccc4o3)cc2)n2cnnn2)cc1 (centres undefined) [1H-tetrazole, 13]"
5,4.46,"Fc1ccc(C(c2ccc(Nc3nc4ccccc4o3)cc2)n2ccnc2)cc1 (centres undefined) [Oxazolamine derivative, 5a]"

# — BindingDB's records for doi:10.1080/14756360802218334 (Cardiff University, 2009)
